{
  "source": "patent US10308938B2",
  "about": "“Compositions and methods to activate or inhibit toll-like receptor signaling” (priority 2014, dated 2019)",
  "tested_on": "CD14^+ monocytes",
  "test": "Activation of CD14+ monocytes (surface staining, cytokine ELISA)",
  "type": "cell-based, human",
  "from_the_text": "Cell isolation and FACS sorting of T cell populations. Peripheral blood mononuclear cells (PBMC) were isolated from healthy donors by Ficoll Hypaque gradient centrifugation. Total CD4^+ T cells were isolated by negative selection using CD4^+ T cell isolation kit (StemCell Technologies, Vancouver, BC) and stained for fluorescence-activated cell sorting (FACS) with the following antibodies: anti-CD45RO (clone UCHL1), CD45RA (clone H1100), CD25 (clone M-A251) (all from BD Biosciences) and CD127 (clone eBioRDR5) from eBioscience (San Diego, Calif.). The Treg (CD4^+CD25^hiCD127^low/neg) memory T cell (CD4^+CD45RA^−CD45RO^+CD25^low/neg+) and naïve T cell (CD4^+CD45RA^+CD45RO^−CD25^low/neg) populations were sorted on a FACS Aria (BD Biosciences). Unless specified, CD4^+ T cells used in the experiments were Treg-depleted CD4^+ T cells and they were sorted as CD4^+CD25^pos/lowCD127^+. The purity of the sorted CD4^+ T cell population was >98% as assessed by CD3 and CD4 staining after sort. CD14^+ cells were isolated by positive selection using EasySep™ Human CD14 Positive Selection Kit (StemCell Technologies).\nCell activation and intracellular staining.\nEnzyme-linked immunosorbent assay.",
  "data": [
    {"smiles": "CC(C)Cn1cnc2c(N)nc3ccccc3c21", "note": "[Imiquimod]", "values": [
      {"measurement": "CD25 protein expression", "setting": "5 μg/ml IMQ, 24 hours", "value": "upregulation"},
      {"measurement": "CD80 protein expression", "setting": "5 μg/ml IMQ, 24 hours", "value": "upregulation"},
      {"measurement": "CD86 protein expression", "setting": "5 μg/ml IMQ, 24 hours", "value": "downregulation"},
      {"measurement": "HLA-DR protein expression", "setting": "5 μg/ml IMQ, 24 hours", "value": "upregulation"},
      {"measurement": "IL-6 secretion", "setting": "ELISA", "value": "secreted significant levels"},
      {"measurement": "IL-10 secretion", "setting": "ELISA", "value": "decreased"},
      {"measurement": "IL-113 secretion", "setting": "ELISA", "value": "secreted significant levels"},
      {"measurement": "TNFα secretion", "setting": "ELISA", "value": "secreted significant levels"}
    ]}
  ]
}
